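Following 48 hours of exposure in 96-well plates, responses at five concentrations were used to interpolate endpoints linearly. The concentration for 50% growth inhibition is given as GI50. TGI: concentration producing complete growth inhibition.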
Legend:
Test in all cases: NCI anticancer screen, dose series, 48 h
[1] = tested on: SK-MEL-28 melanoma
[2] = tested on: SF-295 CNS
[3] = tested on: MALME-3M melanoma
[4] = tested on: HT29 colon
[5] = tested on: HOP-92 NSCLC
[6] = tested on: HCT-116 colon
[7] = tested on: DU-145 prostate
[8] = tested on: HCC-2998 colon
[9] = tested on: MCF7 breast
[10] = tested on: SW-620 colon

| SMILES | TGI [1] [µM] | TGI [2] [µM] | TGI [3] [µM] | TGI [4] [µM] | TGI [5] [µM] | TGI [6] [µM] | TGI [7] [µM] | TGI [8] [µM] | TGI [9] [µM] | TGI [10] [µM] | GI50 [1] [µM] | GI50 [2] [µM] | GI50 [3] [µM] | GI50 [4] [µM] | GI50 [5] [µM] | GI50 [6] [µM] | GI50 [7] [µM] | GI50 [8] [µM] | GI50 [9] [µM] | GI50 [10] [µM] |
| --- | --- | --- | --- | --- | --- | --- | --- | --- | --- | --- | --- | --- | --- | --- | --- | --- | --- | --- | --- | --- |
| CC1(C)C=C(/C=N/Nc2ccccc2)C(C#N)=C(O)C1(C#N)C#N | > 100 | > 100 | > 100 | > 100 | 99.6 | > 100 | > 100 | > 100 | > 100 | > 100 |  |  |  |  |  |  |  |  |  |  |
| O=C(Nc1nn[nH]n1)c1nc(-c2ccccc2)cc(=O)[nH]1 | > 100 | > 100 | > 100 | > 100 | > 100 | > 100 | > 100 | > 100 | > 100 | > 100 |  |  |  |  |  |  |  |  |  |  |
| CCOC(=O)Nc1ccc(S(=O)(=O)Nn2cnnc2)cc1 | > 100 | > 100 | > 100 | 59.9 | > 100 | > 100 | > 100 | 74.5 | > 100 | > 100 |  |  |  |  |  |  |  |  |  |  |
| COc1ccc2cc(C(C)C(=O)N3C(=O)OCC3(C)C)ccc2c1 (configuration not stated) | > 100 | > 100 | > 100 | > 100 | > 100 | > 100 | > 100 | > 100 | > 100 | > 100 |  |  |  |  |  |  |  |  |  |  |
| CC(C)(C)C1=C(Br)C(O)(C(C)(C)C)OP1(=O)c1ccccc1 (configuration not stated) | > 100 | > 100 | > 100 | > 100 | > 100 |  | > 100 | > 100 | 43.1 | > 100 |  |  |  |  |  |  |  |  |  |  |
| COc1ccccc1C1C(C#N)=C(N)Oc2n[nH]c(C)c21 (configuration not stated) | > 100 | > 100 | > 100 | > 100 | > 100 | > 100 | > 100 | > 100 | > 100 | > 100 | > 100 | > 100 | > 100 | > 100 | 41.2 | 90.7 | > 100 | > 100 | > 100 | > 100 |
| C[C@H](C1CC2(C)OC2(C)C(=O)O1)[C@H]1CC[C@H]2[C@@H]3[C@@H]4O[C@@H]4[C@@]4(O)CC=CC(=O)[C@]4(C)[C@H]3CC[C@]12C (some centres not stated) | > 50 | > 50 |  | > 50 | > 50 | > 50 | > 50 | > 50 | > 50 | > 50 |  |  |  |  |  |  |  |  |  |  |
| CC(=O)OCC1OC(n2c(C)c(C)c(C)c(C#N)c2=S)C(OC(C)=O)C(OC(C)=O)C1OC(C)=O (configuration not stated) | > 100 | 61.4 | > 100 | > 100 | > 100 | 67.7 | > 100 | > 100 | > 100 | > 100 |  |  |  |  |  |  |  |  |  |  |
| CCN(CC)C(=O)CCN1CC1 | > 10 | > 10 | > 10 | > 10 | > 10 | > 10 | > 10 | > 10 | > 10 |  |  |  |  |  |  |  |  |  |  |  |
| COC(NC(=O)Nc1ccccc1C)(C(F)(F)F)C(F)(F)F | > 100 | > 100 |  | > 100 | > 100 | > 100 | > 100 | > 100 | > 100 | > 100 |  |  |  |  |  |  |  |  |  |  |
| N#Cc1c(N)nc2c3c1NC(=O)C(C(N)=O)C3c1ccccc1O2 (configuration not stated) | > 100 | > 100 | > 100 | > 100 | 71.9 | > 100 | > 100 | > 100 | > 100 | > 100 |  |  |  |  |  |  |  |  |  |  |
| COC1=CC(=O)N(C)C(O)C1(C#N)OC1OC(CO)C(O)C(O)C1O (configuration not stated) | > 100 | > 100 |  | > 10 | > 100 | > 100 | > 100 | > 100 | > 100 | > 100 |  |  |  |  |  |  |  |  |  |  |
| O=C1/C(=C/c2cccc3ccccc23)CCc2ccc([N+](=O)[O-])cc21 | > 100 | 31.1 | > 100 |  | 74.4 | 71 | > 100 | > 100 | 86.5 | > 100 |  |  |  |  |  |  |  |  |  |  |
| CCOC1=C(c2ccccc2)N2CCCCC2O1 (configuration not stated) | > 63.2 | 15.5 | 20.7 | 16.9 | 6 | 15.2 | > 86.8 | 12.8 | 51.9 | 36.4 |  |  |  |  |  |  |  |  |  |  |
| NC(=O)CN1C=CCC(C(N)=O)=C1 |  | > 100 | > 100 | > 100 | > 100 | > 100 | > 100 | > 100 | > 100 | > 100 |  |  |  |  |  |  |  |  |  |  |
| NCCSCCC(=O)O | > 71.8 | > 92.3 | > 100 | > 100 | > 100 | > 100 | > 100 | 98.4 | > 100 | > 100 |  |  |  |  |  |  |  |  |  |  |
| CC(C)Oc1cccc(N2C(Nc3ccccc3)=Nc3ccncc3S2(=O)=O)c1 | 17.2 | 95.1 | 63.7 | > 100 | 49 | > 100 | > 100 | 71.5 | > 100 | 57.4 |  |  |  |  |  |  |  |  |  |  |
| CC1=CCC[C@H]2[C@](C)(CC3=CC(=O)C(SCC(C)C)=CC3=O)[C@@H](C)CC[C@]12C | 32.5 | 34.6 |  | 29.9 | 17.9 | 24.8 | 30.9 | 31.5 | 37.7 | 51.7 |  |  |  |  |  |  |  |  |  |  |
